Assay results as given in patent US20260199438A1, “METHOD AND TREATMENT FOR DIABETES IN DOGS” (THE ROYAL VETERINARY COLLEGE, priority 2022, published 2026).
Read-outs that look alike come from different tables or passages of the source.

Columns and labels:
[1] = biological target: T1, wild-type (WT) KATP channels (Kir6.2/SUR1) (Homo sapiens, UniProt Q09428+Q14654); experiment: Two-electrode voltage-clamp whole-cell currents in Xenopus oocytes, wild-type channel; assay type: cell-based
[2] = biological target: T1, wild-type (WT) KATP channels (Kir6.2/SUR1)

T1 sequence (Q14654 whole entry): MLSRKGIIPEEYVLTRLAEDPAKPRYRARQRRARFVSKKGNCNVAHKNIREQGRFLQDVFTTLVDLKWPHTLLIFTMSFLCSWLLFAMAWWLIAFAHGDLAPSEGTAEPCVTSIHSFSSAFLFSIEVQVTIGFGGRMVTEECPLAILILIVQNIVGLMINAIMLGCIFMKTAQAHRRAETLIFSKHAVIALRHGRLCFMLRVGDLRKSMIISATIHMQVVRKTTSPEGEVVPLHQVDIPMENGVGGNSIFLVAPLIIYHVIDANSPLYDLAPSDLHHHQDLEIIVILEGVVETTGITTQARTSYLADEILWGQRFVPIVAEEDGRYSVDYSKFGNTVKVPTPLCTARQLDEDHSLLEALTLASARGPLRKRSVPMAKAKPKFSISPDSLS
T1 sequence (Q09428 whole entry): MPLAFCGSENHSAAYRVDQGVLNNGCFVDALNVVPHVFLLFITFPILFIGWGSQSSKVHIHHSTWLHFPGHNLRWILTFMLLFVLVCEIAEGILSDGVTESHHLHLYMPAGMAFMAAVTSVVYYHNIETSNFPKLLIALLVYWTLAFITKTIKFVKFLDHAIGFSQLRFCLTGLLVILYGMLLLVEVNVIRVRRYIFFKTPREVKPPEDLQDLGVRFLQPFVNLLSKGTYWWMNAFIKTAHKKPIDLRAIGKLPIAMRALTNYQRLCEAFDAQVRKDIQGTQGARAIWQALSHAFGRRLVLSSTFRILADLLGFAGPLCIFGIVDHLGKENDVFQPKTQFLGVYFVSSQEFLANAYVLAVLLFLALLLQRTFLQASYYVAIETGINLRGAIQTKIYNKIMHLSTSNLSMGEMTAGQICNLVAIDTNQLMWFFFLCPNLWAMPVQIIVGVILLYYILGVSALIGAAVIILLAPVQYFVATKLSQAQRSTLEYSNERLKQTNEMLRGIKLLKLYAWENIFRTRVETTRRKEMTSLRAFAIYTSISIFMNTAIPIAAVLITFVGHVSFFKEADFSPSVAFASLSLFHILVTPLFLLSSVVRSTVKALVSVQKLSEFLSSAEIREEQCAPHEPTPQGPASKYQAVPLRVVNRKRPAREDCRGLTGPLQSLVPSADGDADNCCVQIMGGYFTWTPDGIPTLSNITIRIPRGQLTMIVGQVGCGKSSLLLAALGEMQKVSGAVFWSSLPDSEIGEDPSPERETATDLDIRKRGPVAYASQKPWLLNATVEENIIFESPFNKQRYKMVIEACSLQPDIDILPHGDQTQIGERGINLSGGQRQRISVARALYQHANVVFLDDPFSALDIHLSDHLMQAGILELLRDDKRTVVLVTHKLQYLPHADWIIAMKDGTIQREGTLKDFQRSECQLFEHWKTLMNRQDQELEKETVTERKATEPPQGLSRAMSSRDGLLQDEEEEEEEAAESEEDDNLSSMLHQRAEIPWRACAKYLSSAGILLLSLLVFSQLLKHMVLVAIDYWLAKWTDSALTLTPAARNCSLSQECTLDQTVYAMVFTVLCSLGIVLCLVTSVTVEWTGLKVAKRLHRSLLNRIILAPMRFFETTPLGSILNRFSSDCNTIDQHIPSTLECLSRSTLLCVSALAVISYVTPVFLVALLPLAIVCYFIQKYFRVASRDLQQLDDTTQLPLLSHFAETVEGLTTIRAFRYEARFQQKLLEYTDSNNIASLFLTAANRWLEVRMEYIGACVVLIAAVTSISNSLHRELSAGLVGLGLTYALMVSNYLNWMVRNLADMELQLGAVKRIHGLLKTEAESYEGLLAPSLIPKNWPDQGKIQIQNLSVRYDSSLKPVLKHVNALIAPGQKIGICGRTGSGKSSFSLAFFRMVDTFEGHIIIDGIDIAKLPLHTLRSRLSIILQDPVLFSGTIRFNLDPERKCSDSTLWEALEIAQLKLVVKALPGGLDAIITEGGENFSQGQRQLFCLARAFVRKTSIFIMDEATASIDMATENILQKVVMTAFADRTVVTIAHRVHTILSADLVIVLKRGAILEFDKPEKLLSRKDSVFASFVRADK

## [N-]=[N+]=[N-].[Na+] [Na-azide]
[1]; WT, 3 mM Na-azide
  activation of whole-cell currents by the metabolic inhibitor: activated

## Nc1ncnc2c1ncn2[C@@H]1O[C@H](COP(=O)(O)OP(=O)(O)OP(=O)(O)O)[C@@H](O)[C@H]1O [ATP, adenosine triphosphate]
[2]; absence of Mg2+
  Hill coefficient h, fits to individual dose-response relationships (mean±SEM): 1.24±0.05
[2]; presence of Mg2+
  Hill coefficient h, fit to the mean data: 1.1
  Hill coefficient h, fits to individual dose-response relationships (mean±SEM): 1.12±0.04

## CCCCNC(=O)NS(=O)(=O)c1ccc(C)cc1 [tolbutamide]
[1]; WT channels, 0.5 mM tolbutamide after 3 mM Na-azide
  tolbutamide block, percentage block of the azide-induced current: > 95%
